Measured values published in ChEMBL document CHEMBL5030517, “6-Halopyridylmethylidene Penicillin-Based Sulfones Efficiently Inactivate the Natural Resistance of Pseudomonas aeruginosa to β-Lactam Antibiotics” (J Med Chem, 2021).
≈ marks a conversion by molar mass, not a printed value. Calls of active or inactive are those of the source. The rule behind the calls is not given here.

What was measured:
[1] = tested on: Pseudomonas aeruginosa PAO1; assay: Inhibition of beta-lactamase activity in Pseudomonas aeruginosa PAO1 PAHUAC-14 (ST-966) assessed as MIC for cefpodoxime antibacterial activity at 4 mg/L by broth microdilution method
[2] = tested on: Pseudomonas aeruginosa PAO1; assay: Inhibition of beta-lactamase activity in Pseudomonas aeruginosa PAO1 assessed as MIC for cefpodoxime antibacterial activity at 16 mg/L by broth microdilution method
[3] = tested on: Pseudomonas aeruginosa PAO1; assay: Inhibition of beta-lactamase activity in Pseudomonas aeruginosa PAO1 13/09-018 (ST-175) assessed as MIC for cefpodoxime antibacterial activity at 16 mg/L by broth microdilution method
[4] = tested on: Pseudomonas aeruginosa PAO1; assay: Inhibition of beta-lactamase activity in Pseudomonas aeruginosa PAO1 deltaC+pUCP-(PDC-5) assessed as MIC for cefpodoxime antibacterial activity at 16 mg/L by broth microdilution method
[5] = tested on: Pseudomonas aeruginosa PAO1; assay: Inhibition of beta-lactamase activity in Pseudomonas aeruginosa PAO1 deltaampD assessed as MIC for cefpodoxime antibacterial activity at 16 mg/L by broth microdilution method
[6] = tested on: Pseudomonas aeruginosa PAO1; assay: Inhibition beta lactamase PDC-1 in Pseudomonas aeruginosa PAO1 assessed as ratio of kinact/K1 using nitrocefin as substrate measured by 96 well microtitre plate
[7] = tested on: Pseudomonas aeruginosa PAO1; assay: Inhibition of beta-lactamase activity in Pseudomonas aeruginosa PAO1 PAHUAC-27(ST-22) assessed as MIC for cefpodoxime antibacterial activity at 4 mg/L by broth microdilution method
[8] = tested on: Pseudomonas aeruginosa PAO1; assay: Inhibition beta lactamase PDC-1 in Pseudomonas aeruginosa PAO1 assessed as inactivation efficiency by measuring acylation rate (k2/K) using nitrocefin as substrate measured by 96 well microtitre plate
[9] = tested on: Pseudomonas aeruginosa PAO1; assay: Inhibition of beta-lactamase activity in Pseudomonas aeruginosa PAO1 deltaC+pUCP-(PDC-1) assessed as MIC for cefpodoxime antibacterial activity at 4 mg/L by broth microdilution method
[10] = tested on: Pseudomonas aeruginosa PAO1; assay: Inhibition of beta-lactamase activity in Pseudomonas aeruginosa PAO1 deltaDdeltsDh2deltaDh3 assessed as MIC for cefpodoxime antibacterial activity at 4 mg/L by broth microdilution method
[11] = tested on: Pseudomonas aeruginosa PAO1; assay: Inhibition of beta-lactamase activity in Pseudomonas aeruginosa PAO1 deltaC assessed as MIC for cefpodoxime antibacterial activity at 4 mg/L by broth microdilution method
[12] = tested on: Pseudomonas aeruginosa PAO1; assay: Inhibition of beta-lactamase activity in Pseudomonas aeruginosa PAO1 deltaDdeltsDh2deltaDh3 assessed as MIC for cefpodoxime antibacterial activity at 16 mg/L by broth microdilution method
[13] = tested on: Pseudomonas aeruginosa PAO1; assay: Inhibition of beta-lactamase activity in Pseudomonas aeruginosa PAO1 23/14-053 (ST-309) assessed as MIC for cefpodoxime antibacterial activity at 4 mg/L by broth microdilution method
[14] = tested on: Pseudomonas aeruginosa PAO1; assay: Inhibition of beta-lactamase activity in Pseudomonas aeruginosa PAO1 deltadacBdeltapbpGdeltadacC assessed as MIC for cefpodoxime antibacterial activity at 16 mg/L by broth microdilution method
[15] = tested on: Pseudomonas aeruginosa PAO1; assay: Inhibition of beta-lactamase activity in Pseudomonas aeruginosa PAO1 deltadacB assessed as MIC for cefpodoxime antibacterial activity at 4 mg/L by broth microdilution method
[16] = tested on: Pseudomonas aeruginosa PAO1; assay: Inhibition of beta-lactamase activity in Pseudomonas aeruginosa PAO1 13/09-018 (ST-175) assessed as MIC for cefpodoxime antibacterial activity at 4 mg/L by broth microdilution method
[17] = tested on: Pseudomonas aeruginosa PAO1; assay: Inhibition of beta lactamase PDC-1 in Pseudomonas aeruginosa PAO1 assessed as reduction in enzyme activity using nitrocefin as chromogenic substrate preincubated for 10 min using 96 well microtiter plate
[18] = tested on: Pseudomonas aeruginosa PAO1; assay: Inhibition of beta-lactamase activity in Pseudomonas aeruginosa PAO1 deltadacBdeltaampD assessed as MIC for cefpodoxime antibacterial activity at 16 mg/L by broth microdilution method
[19] = tested on: Pseudomonas aeruginosa PAO1; assay: Inhibition of beta-lactamase activity in Pseudomonas aeruginosa PAO1 deltaampD assessed as MIC for cefpodoxime antibacterial activity at 4 mg/L by broth microdilution method
[20] = Inhibition beta lactamase PDC-1 in Pseudomonas aeruginosa PAO1 assessed as apparent inhibition constant using nitrocefin as substrate measured by 96 well microtitre plate; conditions: read-out: Ki(app)
[21] = tested on: Pseudomonas aeruginosa PAO1; assay: Inhibition of beta-lactamase activity in Pseudomonas aeruginosa PAO1 17/14-017 (ST-235) assessed as MIC for cefpodoxime antibacterial activity at 4 mg/L by broth microdilution method
[22] = tested on: Pseudomonas aeruginosa PAO1; assay: Inhibition of beta-lactamase activity in Pseudomonas aeruginosa PAO1 6/04-224 (ST-175) assessed as MIC for cefpodoxime antibacterial activity at 16 mg/L by broth microdilution method
[23] = tested on: Pseudomonas aeruginosa PAO1; assay: Inhibition of beta-lactamase activity in Pseudomonas aeruginosa PAO1 17/14-017 (ST-235) assessed as MIC for cefpodoxime antibacterial activity at 16 mg/L by broth microdilution method
[24] = tested on: Pseudomonas aeruginosa PAO1; assay: Inhibition of beta-lactamase activity in Pseudomonas aeruginosa PAO1 deltadacBdeltadacC assessed as MIC for cefpodoxime antibacterial activity at 16 mg/L by broth microdilution method
[25] = tested on: Pseudomonas aeruginosa PAO1; assay: Inhibition of beta-lactamase activity in Pseudomonas aeruginosa PAO1 deltaC+pUCP-(PDC-5) assessed as MIC for cefpodoxime antibacterial activity at 4 mg/L by broth microdilution method
[26] = tested on: Pseudomonas aeruginosa PAO1; assay: Inhibition of beta-lactamase activity in Pseudomonas aeruginosa PAO1 deltadacB assessed as MIC for cefpodoxime antibacterial activity at 16 mg/L by broth microdilution method
[27] = tested on: Pseudomonas aeruginosa PAO1; assay: Inhibition of beta-lactamase activity in Pseudomonas aeruginosa PAO1 36/14-210 (ST-235) assessed as MIC for cefpodoxime antibacterial activity at 4 mg/L by broth microdilution method
[28] = tested on: Pseudomonas aeruginosa PAO1; assay: Inhibition beta lactamase PDC-1 in Pseudomonas aeruginosa PAO1 assessed as deacylation off-rate using nitrocefin as substrate at 30 mins measured by 96 well microtitre plate
[29] = tested on: Pseudomonas aeruginosa PAO1; assay: Inhibition of beta-lactamase activity in Pseudomonas aeruginosa PAO1 23/14-053 (ST-309) assessed as MIC for cefpodoxime antibacterial activity at 16 mg/L by broth microdilution method
[30] = tested on: Pseudomonas aeruginosa PAO1; assay: Inhibition of beta-lactamase activity in Pseudomonas aeruginosa PAO1 assessed as MIC for cefpodoxime antibacterial activity at 4 mg/L by broth microdilution method
[31] = tested on: Pseudomonas aeruginosa PAO1; assay: Inhibition of beta-lactamase activity in Pseudomonas aeruginosa PAO1 36/14-210 (ST-235) assessed as MIC for cefpodoxime antibacterial activity at 16 mg/L by broth microdilution method
[32] = tested on: Pseudomonas aeruginosa PAO1; assay: Inhibition beta lactamase PDC-1 in Pseudomonas aeruginosa PAO1 assessed half life of nitrocefin substrate measured by 96 well microtitre plate assay
[33] = tested on: Pseudomonas aeruginosa PAO1; assay: Inhibition of beta-lactamase activity in Pseudomonas aeruginosa PAO1 53/22-113 (ST-244) assessed as MIC for cefpodoxime antibacterial activity at 16 mg/L by broth microdilution method
[34] = tested on: Pseudomonas aeruginosa PAO1; assay: Inhibition of beta-lactamase activity in Pseudomonas aeruginosa PAO1 deltadacBdeltapbpGdeltadacC assessed as MIC for cefpodoxime antibacterial activity at 4 mg/L by broth microdilution method
[35] = tested on: Pseudomonas aeruginosa PAO1; assay: Inhibition beta lactamase PDC-1 in Pseudomonas aeruginosa PAO1 assessed as maximum rate of inactivation using nitrocefin as substrate measured by 96 well microtitre plate
[36] = tested on: Pseudomonas aeruginosa PAO1; assay: Inhibition of beta-lactamase activity in Pseudomonas aeruginosa PAO1 53/22-113 (ST-244) assessed as MIC for cefpodoxime antibacterial activity at 4 mg/L by broth microdilution method
[37] = tested on: Pseudomonas aeruginosa PAO1; assay: Inhibition of beta-lactamase activity in Pseudomonas aeruginosa PAO1 deltadacBdeltaampD assessed as MIC for cefpodoxime antibacterial activity at 4 mg/L by broth microdilution method
[38] = tested on: Pseudomonas aeruginosa PAO1; assay: Inhibition of beta-lactamase activity in Pseudomonas aeruginosa PAO1 deltaC assessed as MIC for cefpodoxime antibacterial activity at 16 mg/L by broth microdilution method
[39] = tested on: Pseudomonas aeruginosa PAO1; assay: Inhibition of beta-lactamase activity in Pseudomonas aeruginosa PAO1 PAHUAC-27(ST-22) assessed as MIC for cefpodoxime antibacterial activity at 16 mg/L by broth microdilution method
Pseudomonas aeruginosa = assay: Inhibition of beta lactamase PDC-1 in Pseudomonas aeruginosa PAO1 for 30 min using MALDI TOF-MS analysis
[40] = tested on: Pseudomonas aeruginosa PAO1; assay: Inhibition of beta-lactamase activity in Pseudomonas aeruginosa PAO1 PAHUAC-14 (ST-966) assessed as MIC for cefpodoxime antibacterial activity at 16 mg/L by broth microdilution method
[41] = tested on: Pseudomonas aeruginosa PAO1; assay: Inhibition of beta-lactamase activity in Pseudomonas aeruginosa PAO1 6/04-224 (ST-175) assessed as MIC for cefpodoxime antibacterial activity at 4 mg/L by broth microdilution method
[42] = tested on: Pseudomonas aeruginosa PAO1; assay: Inhibition of beta-lactamase activity in Pseudomonas aeruginosa PAO1 deltaC+pUCP-(PDC-1) assessed as MIC for cefpodoxime antibacterial activity at 16 mg/L by broth microdilution method
[43] = tested on: Pseudomonas aeruginosa PAO1; assay: Inhibition of beta-lactamase activity in Pseudomonas aeruginosa PAO1 deltadacBdeltadacC assessed as MIC for cefpodoxime antibacterial activity at 4 mg/L by broth microdilution method
[44] = Inhibition beta lactamase PDC-1 in Pseudomonas aeruginosa PAO1 using nitrocefin as substrate measured by 96 well microtitre plate

MIC [1]: 8 µg/mL (≈ 15.8 µM)
MIC [2]: 1 µg/mL (≈ 1.97 µM)
MIC [3]: 8 µg/mL (≈ 15.8 µM)
MIC [4]: 2 µg/mL (≈ 3.95 µM)
MIC [5]: 1 µg/mL (≈ 1.97 µM)
K [6]: 5 10^5/M/s
MIC [7]: 4 µg/mL (≈ 7.9 µM)
k2/K inactivation efficiency [8]: 6.8 M⁻¹ s⁻¹
MIC [9]: 1 µg/mL (≈ 1.97 µM)
MIC [10]: 8 µg/mL (≈ 15.8 µM)
MIC [11]: 1 µg/mL (≈ 1.97 µM)
MIC [12]: 1 µg/mL (≈ 1.97 µM)
MIC [13]: 2 µg/mL (≈ 3.95 µM)
MIC [14]: 0.5 µg/mL (≈ 0.987 µM)
MIC [15]: 1 µg/mL (≈ 1.97 µM)
MIC [16]: 2 µg/mL (≈ 3.95 µM)
inhibition [17]: inactive
MIC [18]: 2 µg/mL (≈ 3.95 µM)
MIC [19]: 8 µg/mL (≈ 15.8 µM)
Ki [20]: 110 nM
MIC [21]: 4 µg/mL (≈ 7.9 µM)
MIC [22]: 8 µg/mL (≈ 15.8 µM)
MIC [23]: 4 µg/mL (≈ 7.9 µM)
MIC [24]: 0.5 µg/mL (≈ 0.987 µM)
MIC [25]: 2 µg/mL (≈ 3.95 µM)
MIC [26]: 0.5 µg/mL (≈ 0.987 µM)
MIC [27]: 16 µg/mL (≈ 31.6 µM)
K [28]: 9 10^-2/min
MIC [29]: 2 µg/mL (≈ 3.95 µM)
MIC [30]: 1 µg/mL (≈ 1.97 µM)
MIC [31]: 8 µg/mL (≈ 15.8 µM)
T1/2 [32]: 1.3 h
MIC [33]: 4 µg/mL (≈ 7.9 µM)
MIC [34]: 1 µg/mL (≈ 1.97 µM)
Kinact [35]: 0.013 s⁻¹
MIC [36]: 8 µg/mL (≈ 15.8 µM)
MIC [37]: 8 µg/mL (≈ 15.8 µM)
MIC [38]: 1 µg/mL (≈ 1.97 µM)
MIC [39]: 2 µg/mL (≈ 3.95 µM)
inhibition (Pseudomonas aeruginosa): inactive
MIC [40]: 2 µg/mL (≈ 3.95 µM)
MIC [41]: 8 µg/mL (≈ 15.8 µM)
MIC [42]: 1 µg/mL (≈ 1.97 µM)
MIC [43]: 2 µg/mL (≈ 3.95 µM)
IC50 [44]: 6.3 nM
Compound: C[C@]1(COC(=O)Cc2ccc(O)c(O)c2)[C@H](C(=O)O)N2C(=O)/C(=C/c3ccc(F)cn3)[C@H]2S1(=O)=O
